# Reference: patent US9096536B2, “Asymmetrically substituted anthrapyridazone derivatives as cytostatics” (BS-154 S.P. ZO.O., priority 2011, dated 2015)
# Like-named read-outs stand apart in the source and are kept apart here.
# Columns and labels:
# [1] = tested on: human prostate cancer cell line DU145; assay: Cytostatic activity in vitro, prostate cancer DU145; format: cell-based; details: 72 h continuous exposure
# Description: (§1) Table 5 presents activity in vitro of anthrapiridazone derivatives towards three cell lines of prostate cancer, naturally multidrug resistant, in comparison with references doxorubicin, mitoxantrone and taxol.
# MCF7/DX = assay: Cytostatic activity in vitro, resistant breast cancer subline MCF7/DX (MDR-1); format: cell-based, human; details: for IC50: 72 h continuous exposure; for RI resistance index MCF7/DX: IC50(resistant cells)/IC50(sensitive cells), MCF7/DX vs MCF7
# Description: (§2) It should be mentioned that resistance index is above one order of magnitude better in comparison with doxorubicin and mitoxantrone.
# HL60/DX [2] = assay: Cytostatic activity in vitro, doxorubicin-induced resistant subline (MRP); format: cell-based, human; details: for RI resistance index HL60/DX: IC50(resistant cells)/IC50(sensitive cells)
# Description: (§3) Tables 3 and 4 show cytostatic activity in vitro of 2,6-disubstituted and 2- or 6-monosubstituted (Tab.3), and of 2,5-disubstituted-(Tab.-4) tetracyclic anthrapyridazone derivatives using leukemia cell line HL-60 and the resistant cell sublines with resistance induced by vincristine (MDR-1) or doxorubicin (MRP). Activity of compounds is differentiated depending on their structure, but in all cases resistance indexes are more advantageous in comparison with reference compounds: doxorubicin and mitoxantrone.
# [3] = tested on: human prostate cancer cell line LNCaP; assay: Cytostatic activity in vitro, prostate cancer LNCaP; format: cell-based; details: 72 h continuous exposure
# Description: as §1
# HL60/VINC [4] = assay: Cytostatic activity in vitro, vincristine-induced resistant subline (MDR-1); format: cell-based, human; details: for RI resistance index HL60/VINC: HL60/VINC vs HL60, 72 h
# Description: as §3
# HL60/VINC [5] = assay: Substrate properties: activity against HL60/VINC in the presence of cyclosporine A (MDR-1 pump inhibitor); format: cell-based, human; details: FIG. 2
# Description: FIG. 2 shoes experimentally determined substrate properties of selected antgraoyridazone derivatives vs. Doxorubicin and Mitroxantrone. Activity in vitro against human promyelacytic leykemia cell line HL60/VINC in the presence of cyclosporine A (MDR-1 pump inhibitor).
# [6] = tested on: human prostate cancer cell line PC3; assay: Cytostatic activity in vitro, prostate cancer PC3; format: cell-based; details: 72 h continuous exposure
# Description: as §1
# CT-DNA = assay: Interaction with isolated CT-DNA, fluorescence competition with ethidium bromide; format: binding; details: for IC50: 50% decrease in fluorescence intensity of DNA-bromide ethydine complex; for Kapp relative constant of DNA-compound bonding: Kapp = (1.26/C50) × KEtBr, KEtBr = 10^7M
# Description: It could be supposed that this property explains cytostatic activity of compounds. In Table 9 there are presented quantitative data on the affinity to DNA of tested compounds using the fluorescence method and competitive affinity to DNA of bromine ethydine and tested compounds.
# [7] = tested on: human promyelocytic leukemia cell line HL-60; assay: Cytostatic activity in vitro, HL-60 sensitive line; format: cell-based; details: read-out: HL60 IC50
# Description: as §3
# [8] = tested on: human breast cancer cell line MCF7; assay: Cytostatic activity in vitro, breast cancer MCF7; format: cell-based; details: 72 h continuous exposure
# Description: as §2
# [9] = tested on: human colon adenocarcinoma HT29; assay: Cytostatic activity in vitro, colon adenocarcinoma HT29; format: cell-based; details: 72 h continuous exposure
# Description: (§4) Table 7 presents activity in vitro of selected anthrapyridazone derivatives according to the invention towards sensitive and resistant (MDR-1 type) cell line of human colon adenocarcinoma with resistance induced by mitoxantrone.
# HT29/MIT = assay: Cytostatic activity in vitro, mitoxantrone-induced resistant subline HT29/MIT; format: cell-based, human; details: for IC50: 72 h continuous exposure; for RI resistance index HT29/MIT: IC50(resistant cells)/IC50(sensitive cells), HT29/MIT vs HT29
# Description: as §4
# HL60/DX [10] = assay: Substrate properties: activity against HL60/DX in the presence of BSO (MRP pump inhibitor); format: cell-based, human; details: FIG. 3
# Description: Activity in vitro against human promyelolytic leukemia HL60/DX in the presence of D-L-buthionine-(S,R)-sulphoximine (BSO), MRP pump inhibitor.
# colon cancer LoVo = assay: Cytostatic activity, panel: colon cancer LoVo; format: cell-based; details: 72 h continuous exposure
# Description: (§5) Tables 8A and 8B present cytostatic activity in vitro of selected anthrapyridazone derivatives according to the invention against panel of sensitive and resistant cell lines, in comparison with doxorubicin, cisplatine and mitoxantrone.
# CEM/C2 = assay: Cytostatic activity, panel: CEM/C2 resistant to camptotecine; format: cell-based
# Description: as §5
# LoVo/DX = assay: Cytostatic activity, panel: LoVo/DX resistant to doxorubicin; format: cell-based; details: for RI LoVo LoVo/DX: IC50(resistant cells)/IC50(sensitive cells)
# Description: as §5
# [11] = tested on: lymphoblastic leukemia CCRF-CEM; assay: Cytostatic activity, panel: lymphoblastic leukemia CCRF-CEM; format: cell-based; details: 72 h continuous exposure
# Description: as §5
# [12] = tested on: promyelolytic leukemia HL-60; assay: Cytostatic activity, panel: promyelolytic leukemia HL-60; format: cell-based; details: 72 h continuous exposure
# Description: as §5
# MES-SA/DX5 = assay: Cytostatic activity, panel: MES-SA/DX5 resistant to doxorubicin; format: cell-based; details: for RI MES-SA MES-SA/DX5: IC50(resistant cells)/IC50(sensitive cells)
# Description: as §5
# uterus cancer MES-SA = assay: Cytostatic activity, panel: uterus cancer MES-SA; format: cell-based; details: 72 h continuous exposure
# Description: as §5
# HL60/MX2 = assay: Cytostatic activity, panel: HL60/MX2 resistant to mitoxantrone; format: cell-based
# Description: as §5
# [13] = IC50(resistant cells)/IC50(sensitive cells)
# [14] = 50% inhibition of cell growth after 72 h continuous exposure
# [15] = Homo sapiens, HL-60, 96 h continuous exposure
Compound,IC50 [1] [µM],RI resistance index MCF7/DX (MCF7/DX),IC50 (HL60/DX [2]; 72 h continuous exposure) [µM],"RI resistance index HL60/DX (HL60/DX [2]; HL60/DX vs HL60, 72 h)",IC50 [3] [µM],IC50 (HL60/VINC [4]; 72 h continuous exposure) [µM],RI resistance index HL60/VINC (HL60/VINC [4]; [13]),Effect of blocking MDR-1 pump with cyclosporine A (CSA) on cytostatic activity (HL60/VINC [5]),IC50 [6] [µM],IC50 (CT-DNA) [µM],Kapp relative constant of DNA-compound bonding (CT-DNA) [M⁻¹],"IC50 [7, 14] [µM]",RI resistance index HT29/MIT (HT29/MIT),Effect of MRP protein inhibitor (BSO) on cytostatic activity (HL60/DX [10]),RI LoVo LoVo/DX (LoVo/DX),RI MES-SA MES-SA/DX5 (MES-SA/DX5),other results
"CN(C)CCn1nc2c3c(c(NCCN)ccc3c1=O)C(=O)c1ccccc1-2 [BS-121, 2-[2-(Dimethylamino)ethyl]-6-[2-(aminoethyl)amino)-2,7-dihydro-3H-dibenzo[de,h]cynnoline-3,7-dione]",0.0113 ± 0.0026,1.1,0.564 ± 0.072,433.8,0.0055 ± 0.0007,0.0142 ± 0.0017,10.9,does not essentially affect the cytostatic activity,0.0376 ± 0.0081,0.26 ± 0.02,4.83e+07,0.0013 ± 0.0001,4.1,only partially,–,–,IC50 (MCF7/DX): 0.0453 ± 0.0081 µM; IC50 [8]: 0.0396 ± 0.0008 µM; IC50 [9]: 0.0097 ± 0.001 µM; IC50 (HT29/MIT): 0.0394 ± 0.0043 µM
N.N.[Cl][Pt][Cl] [Cisplatina],–,–,–,–,–,–,–,–,–,–,–,–,–,–,1.6,1.5,IC50 LoVo (colon cancer LoVo): 1.59 ± 0.31 mg/L; IC50 CEM/C2 (CEM/C2; 72 h continuous exposure): 0.44 ± 0.19 mg/L; RI CCRF-CEM CEM/C2 (CEM/C2; [13]): 0.3; IC50 LoVo/DX (LoVo/DX; 72 h continuous exposure): 2.51 ± 0.38 mg/L; IC50 CCRF-CEM [11]: 1.44 ± 0.49 mg/L; IC50 HL60 [12]: 0.22 ± 0.12 mg/L; IC50 MES-SA/DX5 (MES-SA/DX5; 72 h continuous exposure): 3.29 ± 0.15 mg/L; IC50 MES-SA (uterus cancer MES-SA): 2.26 ± 0.58 mg/L; IC50 HL60/MX2 (HL60/MX2; 72 h continuous exposure): 0.56 ± 0.30 mg/L; RI HL60 HL60/MX2 (HL60/MX2; [13]): 2.5
"COc1cccc2c1C(=O)c1c(O)c3c(c(O)c1C2=O)C[C@@](O)(C(=O)CO)C[C@@H]3O[C@H]1C[C@H](N)[C@H](O)[C@H](C)O1 [Doxorubicin, reference compound]",–,49.1,–,592.8,–,–,55.1,has positive influence on maintaining the cytostatic activity,–,0.08,1.5e+08,–,1.5,essentially influences the cytostatic activity,54.7,181.2,"IC50 ([1]; Homo sapiens, DU-145): 0.038 ± 0.0076 µM; IC50 (MCF7/DX; Homo sapiens, MCF7/DX): 0.932 ± 0.145 µM; IC50 (HL60/DX [2]; Homo sapiens, HL-60, 72 h continuous exposure): 9.48 ± 1.3 µM; IC50 (HL60/DX [2]; [15]): 1.86 ± 0.143 µM; RI resistance index HL60/DX (HL60/DX [2]; 96 h): 195.7; IC50 (colon cancer LoVo; Homo sapiens, LoVo): 0.224 mg/L; IC50 ([3]; Homo sapiens, LNCaP): 0.0224 ± 0.0019 µM; IC50 (HL60/VINC [4]; Homo sapiens, HL60/vinc, 72 h continuous exposure): 0.882 ± 0.068 µM; IC50 (HL60/VINC [4]; Homo sapiens, HL60/vinc, 96 h continuous exposure, read-out: HL60VINC IC50): 0.734 ± 0.072 µM; RI resistance index HL60VINC (HL60/VINC [4]; IC50(resistant cells)/IC50(sensitive cells), 96 h): 77.3; IC50 (LoVo/DX; LoVo/DX, 72 h continuous exposure): 12.1 mg/L; IC50 ([6]; Homo sapiens): 0.106 ± 0.007 µM; IC50 ([7]; Homo sapiens, HL-60, 50% inhibition of cell growth after 72 h continuous exposure): 0.016 ± 0.001 µM; IC50 [7, 15]: 0.0095 ± 0.002 µM; IC50 ([8]; Homo sapiens, MCF7): 0.019 ± 0.0033 µM; IC50 (MES-SA/DX5; Homo sapiens, MES-SA/Dx5, 72 h continuous exposure): 13.6 mg/L; IC50 ([9]; Homo sapiens, HT-29): 0.0645 ± 0.0192 µM; IC50 (HT29/MIT; Homo sapiens, HT-29): 0.0971 ± 0.0209 µM; IC50 (uterus cancer MES-SA; Homo sapiens, MES-SA): 0.0705 mg/L"
"O=C1c2ccccc2-c2n[nH]c(=O)c3ccc(NCCNCc4ccccc4)c1c23 [PDZ-10, 6-(2-Benzylaminoetyloamino)-2,7-dihydro-3H-dibenzo[de,h]cynnoline-3,7-dione]",2.09 ± 0.583,–,2.77 ± 0.494,3.7,1.55 ± 0.363,1.16 ± 0.093,1.5,–,3.01 ± 0.264,3.15 ± 0.15,4e+06,0.758 ± 0.115,–,–,–,–,–
"CN(C)CCn1nc2c3c(c(NCC(=O)N(C)C)ccc3c1=O)C(=O)c1ccccc1-2 [PDZ-12, 2-[2-(Dimethylamino)ethyl]-6-[(N,N-dimethylacetamido)amino]-2,7-dihydro-3H-dibenzo[de,h]cynnoline-3,7-dione]",0.169 ± 0.047,–,2.68 ± 0.768,23.7,0.237 ± 0.045,0.947 ± 0.111,8.4,–,0.947 ± 0.037,2.64 ± 0.29,4.8e+06,0.113 ± 0.007,–,–,–,–,–
